Activity calls are given as the source filed them. The rule behind the calls is not given here.
Legend:
Format in all cases: cell-based
[1] = target: T1, Progesterone receptor (Homo sapiens) (UniProt P06401); assay: Agonist activity at PR in human T47D cells using p-nitrophenyl phosphate as substrate assessed as induction of alkaline phosphatase activity at 1 nM incubated for 72 hrs followed by substrate addition measured after 24 hrs by alkaline phosphatase assay relative to control; conditions: filed as agonist, time 96.0 hrs
T1 sequence (whole entry): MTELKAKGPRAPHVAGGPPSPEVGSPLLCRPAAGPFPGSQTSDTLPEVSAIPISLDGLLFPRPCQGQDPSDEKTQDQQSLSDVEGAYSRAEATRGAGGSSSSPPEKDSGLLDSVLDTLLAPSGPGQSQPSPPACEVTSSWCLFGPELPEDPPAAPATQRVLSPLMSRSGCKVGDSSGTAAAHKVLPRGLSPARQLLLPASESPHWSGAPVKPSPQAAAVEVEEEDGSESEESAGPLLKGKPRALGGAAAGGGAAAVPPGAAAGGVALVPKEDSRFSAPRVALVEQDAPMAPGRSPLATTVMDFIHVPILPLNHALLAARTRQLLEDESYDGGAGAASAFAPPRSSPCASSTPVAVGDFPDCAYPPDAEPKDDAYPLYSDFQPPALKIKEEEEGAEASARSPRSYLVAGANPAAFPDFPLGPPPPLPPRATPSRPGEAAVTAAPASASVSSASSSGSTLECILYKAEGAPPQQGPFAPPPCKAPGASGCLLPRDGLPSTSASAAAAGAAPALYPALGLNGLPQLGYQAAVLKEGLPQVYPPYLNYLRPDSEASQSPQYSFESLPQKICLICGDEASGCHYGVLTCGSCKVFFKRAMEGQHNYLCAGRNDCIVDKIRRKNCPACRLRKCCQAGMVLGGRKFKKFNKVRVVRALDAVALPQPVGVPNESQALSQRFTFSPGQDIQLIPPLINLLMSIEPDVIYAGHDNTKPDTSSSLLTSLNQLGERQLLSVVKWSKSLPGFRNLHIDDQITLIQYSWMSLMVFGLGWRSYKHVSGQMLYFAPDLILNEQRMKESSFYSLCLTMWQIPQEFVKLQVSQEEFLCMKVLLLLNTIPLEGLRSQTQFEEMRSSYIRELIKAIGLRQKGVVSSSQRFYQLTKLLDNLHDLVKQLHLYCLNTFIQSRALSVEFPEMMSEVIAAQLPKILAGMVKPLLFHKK

[2] = target: T1, Progesterone receptor (Homo sapiens); assay: Agonist activity at PR in human T47D cells using p-nitrophenyl phosphate as substrate assessed as induction of alkaline phosphatase activity at 125 nM incubated for 72 hrs followed by substrate addition measured after 24 hrs by alkaline phosphatase assay; conditions: time 96.0 hrs
Progesterone receptor = target: T2, Progesterone receptor (Homo sapiens, UniProt P06401); assay: Agonist activity at PR in human T47D cells using p-nitrophenyl phosphate as substrate assessed as induction of alkaline phosphatase activity incubated for 72 hrs followed by substrate addition measured after 24 hrs by alkaline phosphatase assay
T2 sequence (P06401 whole entry): T1 sequence (whole entry)

[3] = target: T1, Progesterone receptor (Homo sapiens); assay: Agonist activity at PR in human T47D cells using p-nitrophenyl phosphate as substrate assessed as fold increase in alkaline phosphatase activity at 25 nM incubated for 72 hrs followed by substrate addition measured after 24 hrs by alkaline phosphatase assay relative to control; conditions: filed as agonist, time 96.0 hrs

SMILES | Activity [1] [%] | Activity [2] | EC50 (Progesterone receptor) [nM] | fold change (FC) [3]
CC(=O)O[C@@]1(C(C)=O)CC[C@H]2[C@@H]3CCC4=CC(=O)CC[C@@H]4[C@H]3[C@@H](C)C[C@@]21C | 89.3 | inactive | > 125 | –
CC(=O)O[C@]1(C(C)=O)CC[C@H]2[C@@H]3CCC4=CC(=O)CC[C@@H]4[C@H]3[C@@H](C)C[C@@]21C [NORGESTOMET] | 106 | – | 4.5 | 2
CC(=O)[C@H]1CC[C@H]2[C@@H]3CCC4=CC(=O)CC[C@]4(C)[C@H]3CC[C@]12C | 158 | – | – | –

— ChEMBL document CHEMBL5055652 (Bioorg Med Chem, 2021)
